# Measurements taken from patent publication US20240366553A1, “ASPARTIC ACID COPPER COMPLEX, AND USE THEREOF” (GUANGZHOU INSIGHTER BIOTECHNOLOGY CO., LTD., priority 2021, published 2024).
# Where two headings read alike, the source gives them in different places.
# Tests used:
# weaned piglets = settings: for Average weight gain / Feed-to-meat ratio / Survival rate (%) / Total feed consumption / Total weight gain / Relative weight gain rate (%): weaned piglets, 30 days; for Total feed consumption / Total weight gain: 10 pigs; for Relative weight gain rate (%): control group = 100
# Source text: (§1) Experimental animals: 900 one-day-old Lingnan yellow-feathered, fast-growing, and large-sized broilers; 150 weaned piglets;
# (§2) Feeds: basal feed for chickens and basal feed for pigs that contain no antimicrobial drugs, copper sources and growth promoters;
# (§3) Experimental samples: compound 1, compound 2, compound 3, compound 4, compound 5, compound 6, compound 7,
# 150 weaned piglets were grouped according to Table 2 (10 piglets/group). […] The piglets had free access to food. The weight gain and feed conversion of the experimental pigs in each experimental group were recorded within 30 days after […] weaning.
# [1] = tested on: black carp (subyearlings); assay: Use of aspartic acid copper complex in aquaculture feeds (black carp breeding experiment); type: in vivo; settings: 30 mg/kg in feed (as copper ions), 8 weeks
# Description: Experimental fishes: The experimental fishes used were black carp (subyearlings), which were provided by the Dafeng fish nursery (Huizhou city, Guangdong province). Healthy and active fingerling black carps (uniform in size) were fed for 4 weeks in a big net cage (4×2×1.5 m^3) and then the formal breeding experiment was carried out. The experimental systems were small floating net cages (1.1×1.1×1.1 m^3 in size). Each small net cage was provided with an air-filling head, which allowed for continuous inflation of the cages for 24 h a day. The small net cages and the acclimatization net cage were all placed in a 3500 m^2 pond in the experimental field. […] During the trial, 480 black carps (fasted for 1 d) were randomly divided into 10 groups, with 4 replicates for each group and 12 fishes in each replicate. After weighing as a whole, the black carps were randomly placed into […] and fed with different experimental feeds.
# Experimental feeds: The experimental feeds were formulated following the formula in Table 5. According to Table 6, different copper element supplements (calculated based on the copper ions) were added to the feeds in different experimental groups, respectively. The feed raw materials were subjected to ultrafine grinding and then granulated into floating expanded feeds (3 mm) using an expansion machine from Jiangsu Muyang Corporation. The demolding temperature was 130° C. 3% soybean oil was externally sprayed using an oil spraying device. The finished product was sealed and stored in a cool place for later use.
# Experimental management: During the trial, the carps were manually fed in a restricted dose. The feeding dose was adjusted once a week, and the doses for all groups (based on the initial body weight) were completely consistent. The carps were fed twice a day (at 7:30 and 15:00). The experiment lasted for 8 weeks. During the trial, the water quality was regularly monitored, and throughout the breeding, the water temperature was kept at 26.88±3.08° C., DO>5.0 mg O L^−1, pH 7.8, ammonia nitrogen<0.50 mg NL^−1, and nitrite-nitrogen<0.05 mg N L^−1.
# Parametric statistics: During the trial, the carps in each net cage were weighed as a whole one day after discontinuation of feeding, and the average weight gain (g) and feed-to-meat ratio were calculated. The calculation formulas are as follows:
# Average weight gain (g)=Average final weight−Average initial weight; Feed-to-meat ratio=Food intake/Weight gain of fishes;
# [2] = tested on: Lingnan yellow-feathered, fast-growing, and large-sized broilers; settings: for Average feed consumption / Average weight gain / Feed-to-meat ratio / Survival rate (%) / Relative weight gain rate (%): broilers aged 1 to 21 days; for Relative weight gain rate (%): relative to control group
# Source text: as §1, §2, §3
# 900 one-day-old Lingnan yellow-feathered, fast-growing, and large-sized broilers were randomly divided into 18 groups (50 broilers/group). […] The broilers had free access to food. The weight gain and feed conversion of the experimental chickens (aged from 1 to 21 days) in each experimental group were recorded.
# [3] = 8 mg/kg in feed (as copper ion)
# [4] = 50 mg/kg in feed (as copper ion)
# [5] = 100 mg/kg in feed (as copper ion)
# [6] = group 1-30: 30 mg/kg in feed (as copper ion)
# [7] = group 1-200: 200 mg/kg in feed (as copper ion)
# [8] = 5 mg/kg in feed (as copper ion)
# [9] = 200 mg/kg in feed (as copper ion)
# [10] = 300 mg/kg in feed (as copper ion)
compound,measurement,setting,value
"N[C@@H](CC(=O)[O-])C(=O)[O-].O.O.[Cu+2] [Compound 1, [(Cu(II))(L-Asp)(H2O)2]]",Average weight gain,weaned piglets; [3],11.26 kg
same,Feed-to-meat ratio,weaned piglets; [3],2.268
same,Survival rate (%),weaned piglets; [3],100%
same,Total feed consumption,weaned piglets; [3],255.34 kg
same,Total weight gain,weaned piglets; [3],112.6 kg
same,Relative weight gain rate (%),weaned piglets; [3],103.30%
same,Average weight gain,weaned piglets; [4],12.12 kg
same,Feed-to-meat ratio,weaned piglets; [4],2.121
same,Survival rate (%),weaned piglets; [4],100%
same,Total feed consumption,weaned piglets; [4],257.08 kg
same,Total weight gain,weaned piglets; [4],121.2 kg
same,Relative weight gain rate (%),weaned piglets; [4],111.19%
same,Average weight gain,weaned piglets; [5],12.21 kg
same,Feed-to-meat ratio,weaned piglets; [5],2.112
same,Survival rate (%),weaned piglets; [5],100%
same,Total feed consumption,weaned piglets; [5],257.86 kg
same,Total weight gain,weaned piglets; [5],122.1 kg
same,Relative weight gain rate (%),weaned piglets; [5],112.02%
same,Dose effect on improving the production performance of the experimental pigs,weaned piglets; 8-200 mg/kg groups,exhibited a dose effect
same,Growth-promoting effect and feed conversion rate versus high-level copper sulfate group,"weaned piglets; dose of 50 mg/kg, comparator copper sulfate 250 mg/kg",close to those achieved in the high-level copper sulfate group
same,Average weight gain,weaned piglets; [6],11.66 kg
same,Feed-to-meat ratio,weaned piglets; [6],2.205
same,Survival rate (%),weaned piglets; [6],100%
same,Total feed consumption,weaned piglets; [6],257.09 kg
same,Total weight gain,weaned piglets; [6],116.6 kg
same,Relative weight gain rate (%),weaned piglets; [6],106.97%
same,Average weight gain,weaned piglets; [7],12.34 kg
same,Feed-to-meat ratio,weaned piglets; [7],2.093
same,Survival rate (%),weaned piglets; [7],100%
same,Total feed consumption,weaned piglets; [7],258.28 kg
same,Total weight gain,weaned piglets; [7],123.4 kg
same,Relative weight gain rate (%),weaned piglets; [7],113.21%
same,Improvement in the feed conversion of the experimental pigs compared with compound 4,weaned piglets; used at the same doses (50 mg/kg),about 2 fold
same,Average weight gain,[1],357 g
same,Feed-to-meat ratio,[1],1.401
same,Average feed consumption,[2]; [8],916 g
same,Average weight gain,[2]; [8],497 g
same,Feed-to-meat ratio,[2]; [8],1.843
same,Survival rate (%),[2]; [8],100%
same,Relative weight gain rate (%),[2]; [8],104.9%
same,Average feed consumption,[2]; [4],923 g
same,Average weight gain,[2]; [4],518 g
same,Feed-to-meat ratio,[2]; [4],1.782
same,Survival rate (%),[2]; [4],100%
same,Relative weight gain rate (%),[2]; [4],109.3%
same,Average feed consumption,[2]; [5],970 g
same,Average weight gain,[2]; [5],546 g
same,Feed-to-meat ratio,[2]; [5],1.777
same,Survival rate (%),[2]; [5],100%
same,Relative weight gain rate (%),[2]; [5],115.2%
same,Average feed consumption,[2]; [9],1004 g
same,Average weight gain,[2]; [9],567 g
same,Feed-to-meat ratio,[2]; [9],1.771
same,Survival rate (%),[2]; [9],100%
same,Relative weight gain rate (%),[2]; [9],119.6%
same,Average feed consumption,[2]; [10],926 g
same,Average weight gain,[2]; [10],526 g
same,Feed-to-meat ratio,[2]; [10],1.760
same,Survival rate (%),[2]; [10],100%
same,Relative weight gain rate (%),[2]; [10],111.0%
same,Dose effect in the experimental results (broilers),[2]; addition amount of 50-100 mg/kg,exhibited a dose effect
same,Physical characteristics of the experimental chickens,[2]; experimental groups of compounds 1-7,normal physical characteristics
same,Average feed consumption,[2]; [6],919 g
same,Average weight gain,[2]; [6],511 g
same,Feed-to-meat ratio,[2]; [6],1.798
same,Survival rate (%),[2]; [6],100%
same,Relative weight gain rate (%),[2]; [6],107.8%
